Assay results from BindingDB's records for doi:10.1021/acsmedchemlett.0c00651 (Philipps University, 2021).

Legend:
Prothrombin = Prothrombin (Bos taurus, UniProt P00735); test: Inhibition of bovine thrombin using Tos-Gly-Pro-Arg-AMC as substrate by fluorescence assay
Plasminogen = Plasminogen (Homo sapiens, UniProt P00747); test: Inhibition pf human plasmin using Mes-Darg-Phe-Arg-AMC as substrate by fluorescence assay
Coagulation factor X = Coagulation factor X (Homo sapiens, UniProt P00742); test: Inhibition of human factor Xa using Mes-Darg-Pro-Arg-AMC as flurogenic substrate by fluorescence assay

Measured: Ki

Plasminogen, sequence (P00747 97-580 limits assumed): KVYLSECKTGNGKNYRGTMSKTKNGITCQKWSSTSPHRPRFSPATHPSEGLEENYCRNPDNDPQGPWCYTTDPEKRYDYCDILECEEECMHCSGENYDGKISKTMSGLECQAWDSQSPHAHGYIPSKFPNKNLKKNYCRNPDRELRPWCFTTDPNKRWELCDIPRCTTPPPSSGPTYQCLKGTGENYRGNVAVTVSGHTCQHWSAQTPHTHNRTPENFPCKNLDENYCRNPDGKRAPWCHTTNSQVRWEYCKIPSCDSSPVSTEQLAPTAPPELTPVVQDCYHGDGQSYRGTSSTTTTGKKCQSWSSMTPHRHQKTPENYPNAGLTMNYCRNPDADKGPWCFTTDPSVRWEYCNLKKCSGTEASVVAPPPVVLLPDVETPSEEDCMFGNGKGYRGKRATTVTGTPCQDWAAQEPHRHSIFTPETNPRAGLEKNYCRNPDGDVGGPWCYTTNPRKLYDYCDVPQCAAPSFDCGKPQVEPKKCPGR
Plasminogen, sequence (P00747 581-810 limits assumed): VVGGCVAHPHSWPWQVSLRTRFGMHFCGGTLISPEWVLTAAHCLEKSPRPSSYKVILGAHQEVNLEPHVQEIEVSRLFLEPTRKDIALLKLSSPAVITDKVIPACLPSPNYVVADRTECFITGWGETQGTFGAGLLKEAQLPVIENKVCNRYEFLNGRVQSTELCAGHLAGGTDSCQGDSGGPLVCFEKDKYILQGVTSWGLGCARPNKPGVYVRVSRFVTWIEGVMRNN
Coagulation factor X, sequence (P00742 41-179 limits assumed): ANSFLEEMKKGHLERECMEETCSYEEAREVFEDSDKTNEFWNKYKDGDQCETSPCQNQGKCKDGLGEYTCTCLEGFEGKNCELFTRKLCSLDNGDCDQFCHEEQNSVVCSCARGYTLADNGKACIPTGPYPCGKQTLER
Coagulation factor X, sequence (P00742 235-488 limits assumed): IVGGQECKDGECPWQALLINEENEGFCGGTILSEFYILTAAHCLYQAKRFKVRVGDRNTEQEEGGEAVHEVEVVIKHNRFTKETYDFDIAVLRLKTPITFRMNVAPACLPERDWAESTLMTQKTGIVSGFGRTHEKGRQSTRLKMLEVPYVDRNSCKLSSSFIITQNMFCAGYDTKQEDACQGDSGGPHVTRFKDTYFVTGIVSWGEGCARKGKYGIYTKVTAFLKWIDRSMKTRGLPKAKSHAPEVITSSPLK

CC(C)(C)[C@H](NC(=O)[C@H](CCONC(=N)N)NC(=O)Cc1ccc(CNC(=N)N)cc1)C(=O)N[C@@H](CCONC(=N)N)C(=O)NCc1ccc(C(=N)N)cc1
> 3000 nM: all assays above
